Experimental data as given in patent US5869490A, “Azaheterocyclymethyl derivatives of 2,3,8,9-tetrahydro-7h-1,4-dioxino (2,3-e) indol-8-one” (American Home Products Corporation, priority 1997, dated 1999).
Read-outs that look alike come from different tables or passages of the source.

Target: T1, dopamine D2 receptor (Rattus norvegicus, UniProt P61169)
T1 construct: homogenized rat striatal brain tissue; from tissue; host or cells: rat striatum homogenate
Experiment: Affinity for the dopamine D2 receptor (3H-quinpirole, rat striatal homogenate)
Format: binding
Protocol: Affinity for the dopamine D2 receptor was established by a modification of the standard experimental test procedure of Seemen and Schaus, European Journal of Pharmacology 203: 105-109, 1991, wherein homogenized rat striatal brain tissue is incubated with ^3 H-quinpirole and various concentrations of test compound, filtered and washed and counted in a Betaplate scintillation counter.

[1] = rat striatal brain tissue homogenate, 3H-quinpirole, read-out: D2 Receptor Affinity (IC50 (nM))

T1 sequence (P61169 whole entry): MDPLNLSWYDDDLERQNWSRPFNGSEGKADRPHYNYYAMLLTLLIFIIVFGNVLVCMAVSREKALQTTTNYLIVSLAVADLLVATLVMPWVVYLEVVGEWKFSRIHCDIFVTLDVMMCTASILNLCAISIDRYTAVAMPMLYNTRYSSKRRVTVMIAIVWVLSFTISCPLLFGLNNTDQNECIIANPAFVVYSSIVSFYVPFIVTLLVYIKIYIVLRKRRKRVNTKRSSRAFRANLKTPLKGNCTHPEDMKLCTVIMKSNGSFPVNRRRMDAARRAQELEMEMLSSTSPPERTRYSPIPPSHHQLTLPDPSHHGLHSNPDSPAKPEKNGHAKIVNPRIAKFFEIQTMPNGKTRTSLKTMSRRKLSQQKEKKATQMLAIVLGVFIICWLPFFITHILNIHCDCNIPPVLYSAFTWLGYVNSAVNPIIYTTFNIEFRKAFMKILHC

Row | SMILES | IC50 [1] [nM] | IC50 [nM]
1 | O=C1Cc2c(ccc3c2O[C@@H](CN2CC=C(c4ccccc4)CC2)CO3)N1 [Example 5, 2-(4-Phenyl-3,6-dihydro-2H-pyridin-1-ylmethyl)-2,3,8,9-tetrahydro-7H-1,4-dioxino[2,3-e]indol-8-one] | – | 1.2
2 | O=C1Cc2c(c(F)cc3c2O[C@@H](CN2CCc4ccccc4C2)CO3)N1 [Example 7, 2-(3,4-Dihydro-1H-isoguinolin-2-ylmethyl)-6-fluoro-2,3,8,9-tetrahydro-7H-1,4-dioxino[2,3-e]indol-8-one] | 0.23 | –
3 | O=C1Cc2c(ccc3c2O[C@@H](CN2CCC(n4c(=O)[nH]c5ccccc54)CC2)CO3)N1 [Example 4, 2-[4-(2-Oxo-2,3-dihydro-benzimidazol-1-yl)-piperidin-1-ylmethyl]-2,3,8,9-tetrahydro-7H-1,4-dioxino[2,3-e]indol-8-one] | – | 4.08
4 | O=C1Cc2c(ccc3c2O[C@@H](CN2CCC4(CC2)C(=O)NCN4c2ccccc2)CO3)N1 [Example 3, 2-(4-Oxo-1-phenyl-1,3,8-triaza-spiro[4,5]dec-8-ylmethyl)-2,3,8,9-tetrahydro-7H-1,4-dioxino-[2,3-e]indol-8-one] | – | 3.2

Second part, led by results:

Row | IC50 [1] [nM] | SMILES | IC50 [nM]
5 | 4.06 | O=C1Cc2c(ccc3c2O[C@@H](CN2CCN(c4cccc5[nH]ccc45)CC2)CO3)N1 [Example 6, 2-[4-(1H-Indol-4-yl)-piperazin-1-ylmethyl]-2,3,8,9-tetrahydro-7H-1.4-dioxino[2.3-e]indol-8-one] | –
6 | 0.35 | O=C1Cc2c(ccc3c2O[C@@H](CN2CCc4ccccc4C2)CO3)N1 [Example 1, 2-(3,4-Dihydro-1H-isoguinolin-2-ylmethyl)-2,3,8,9-tetrahydro-7H-1,4-dioxino[2,3-e]indol-8-one] | –
7 | 0.73 | O=C1Cc2c(ccc3c2O[C@@H](CN2CCC(C(=O)c4ccc(F)cc4)CC2)CO3)N1 [Example 2, 2-(4-(4-Fluoro-benzoyl)-piperidin-1-ylmethyl]-2,3,8,9-tetrahydro-7H-1,4-dioxino[2,3-e]indol-8-one] | –
